Measured values: article PMC6784244 (Toxins, 2019)
In brackets after ≈: the same amount, converted by molar mass.

Key:
[1] = tested on: F. verticillioides (DSMZ 62264); conditions: DSMZ 62264, pH 7
[2] = tested on: Fusarium graminearum (DSMZ 1095); conditions: DSMZ 1095, pH 7
[3] = tested on: Caco-2 (human intestinal cell line); format: cell-based; conditions: 48 h exposure, 0-100 µM, resazurin fluorescence; means ± S.D, n = 3; read-out: IC50 on cell viability, Caco-2
Experimental: (§1) The impact of ENN or BEA on the viability of human cells were evaluated as previously described. Cells used were human normal lung epithelial cells BEAS-2B (ATCC CRL-9609), human intestinal cell line Caco-2 (ATCC HTB-37), human normal epidermal keratinocytes (HEK) (from Lonza), human liver cell line HEPG2 (ATCC HB-8065), human normal endothelial cells (Human Umbilical Vein Endothelial Cells, HUVEC) (from Sigma-Aldrich, Lyon, France), and human gastric cell line N87 (ATCC CRL-5822). BEAS-2B, Caco-2 and HEPG2 cells were cultured in DMEM supplemented with 10% fetal calf serum (FCS), 1% L-glutamine, and 1% antibiotics (all from Invitrogen (Carlsbad, CA, USA). N87 cells were cultured in RPMI media supplemented with 10% fetal calf serum (FCS), 1% L-glutamine, and 1% antibiotics (all from Invitrogen, Carlsbad, CA, USA). HEK and HUVEC cells were cultured in specific medium (from Lonza and Sigma Aldrich, respectively). Cells were routinely grown on 25 cm^2 flasks and maintained in a 5% CO2 incubator at 37 °C. For toxicity assay, human cells grown on 25 cm^2 flasks were detached using trypsin-EDTA solution (from Thermofisher), counted using Malassez counting chamber, diluted in appropriate culture media, and seeded into 96-well cell culture plates (Greiner bio-one, Paris, France) at approximately 10^4 cells per well. The cells were left to grow for 48–72 h at 37 °C in a 5% CO2 incubator until they reached confluence. Media from wells was then aspirated and cells were treated with 100 µL of appropriate culture media containing increasing concentrations of ENN or BEA (from 0 to 100 µM, 1:2 serial dilution). […] The plates were then incubated at 37 °C for 48 h. Resazurin-based in vitro toxicity assay kit (from Sigma-Aldrich, Lyon, France) was then used to assess the viability of the cells following manufacturer’s instructions. Briefly, resazurin stock solution was diluted 1:10 in sterile PBS containing calcium and magnesium (PBS^++, pH 7.4). Plates were aspirated and 100 µL of the diluted solution were added per wells. After 4 h incubation at 37 °C, fluorescence intensity was measured using microplate reader (Biotek, Synergy Mx, Colmar, France) with an excitation wavelength of 530 nm and an emission wavelength of 590 nm. The fluorescence values were normalized by the controls (untreated cells) and expressed as percentage of cell viability. The IC50 values of ENN or BEA (i.e., the concentrations causing a reduction of 50% of the cell viability) were calculated using GraphPad® Prism 7 software (San Diego, CA, USA). Experiments were conducted in triplicate (n = 3).

[4] = tested on: HUVEC (human normal endothelial cells); format: cell-based; conditions: 48 h exposure, 0-100 µM, resazurin fluorescence; means ± S.D, n = 3; read-out: IC50 on cell viability, HUVEC
Experimental: as §1

[5] = tested on: BEAS-2B (human normal lung epithelial cells); format: cell-based; conditions: 48 h exposure, 0-100 µM, resazurin fluorescence; means ± S.D, n = 3; read-out: IC50 on cell viability, BEAS-2B
Experimental: as §1

[6] = tested on: HEPG2 (human liver cell line); format: cell-based; conditions: 48 h exposure, 0-100 µM, resazurin fluorescence; means ± S.D, n = 3; read-out: IC50 on cell viability, HEPG2
Experimental: as §1

C. perfringens = format: cell-based, Clostridium perfringens

Compound	MIC, F. verticillioides [1]	MIC, F. graminearum [2]	IC50 [3]	IC50 [4]	IC50 [5]	IC50 [6]	percentage of membrane permeabilization at 100 µM, 120 min (C. perfringens)	percentage of permeabilization at four times the MIC (C. perfringens)
CC[C@H](C)[C@H]1C(=O)O[C@H](C(C)C)C(=O)N(C)[C@@H]([C@@H](C)CC)C(=O)O[C@H](C(C)C)C(=O)N(C)[C@@H](C(C)C)C(=O)O[C@H](C(C)C)C(=O)N1C [ENN A1]	>100 µM	50 µM (≈ 33.4 µg/mL)	2700 ± 500 nM	4.6 ± 0.9 µM	6.4 ± 1.5 µM	5.6 ± 1.1 µM	–	–
CC[C@H](C)[C@H]1C(=O)O[C@H](C(C)C)C(=O)N(C)[C@@H]([C@@H](C)CC)C(=O)O[C@H](C(C)C)C(=O)N(C)[C@@H]([C@@H](C)CC)C(=O)O[C@H](C(C)C)C(=O)N1C [ENN A]	>100 µM	25 µM (≈ 17 µg/mL)	1100 ± 200 nM	2.8 ± 0.6 µM	5.7 ± 1.2 µM	3 ± 0.7 µM	37.1 ± 6.7%	7.2 ± 2.5%
CC[C@H](C)[C@H]1C(=O)O[C@H](C(C)C)C(=O)N(C)[C@@H](C(C)C)C(=O)O[C@H](C(C)C)C(=O)N(C)[C@@H](C(C)C)C(=O)O[C@H](C(C)C)C(=O)N1C [ENN B1]	>100 µM	25 µM (≈ 16.3 µg/mL)	3100 ± 500 nM	7 ± 1.1 µM	12.7 ± 2.8 µM	5.6 ± 1.4 µM	–	–
CC(C)[C@H]1C(=O)O[C@H](C(C)C)C(=O)N(C)[C@@H](C(C)C)C(=O)O[C@H](C(C)C)C(=O)N(C)[C@@H](C(C)C)C(=O)O[C@H](C(C)C)C(=O)N1C [ENN B]	>100 µM	>100 µM	4600 ± 1300 nM	17.3 ± 3.3 µM	43.7 ± 7.7 µM	3.4 ± 0.7 µM	19.6 ± 7.9%	–
